Patent publication US9233961B2, “Compounds and compositions for the treatment of parasitic diseases” (Novartis AG, priority 2013, dated 2016)
Read-outs that look alike come from different tables or passages of the source.

Assays:
[1] = tested on: Leishmania donovani axenic amastigote parasites; experiment: Leishmania donovani axenic amastigote proliferation assay; assay type: cell-based; conditions: axenic amastigotes in vitro, read-out: L. donovani amastigotes EC50
Summary of the method: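 EC50 values come from CellTiter-Glo luminescence after 2-day compound exposure of axenic amastigotes (9600 per well) at 37 °C, 5% CO2. Medium: RPMI 1640, 20% heat-inactivated FBS, folic acid, adenosine, D-glucose, 25 mM MES, adjusted to pH 5.5.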

[2] = tested on: L. donovani HU3 strain in mouse peritoneal macrophages; experiment: Assay for proliferation of Leishmania parasites in mouse peritoneal macrophages; assay type: cell-based, Leishmania donovani; conditions: Leishmania donovani, Peritoneal macrophage, read-out: L. donavani Macrophage EC50
Summary of the method: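 EC50 derives from counting SYBR Green-stained parasite nuclei by high-content imaging after 5 days' compound exposure. Host cells were uninfected BALB/c peritoneal macrophages, infected for 24 h before dosing with spleen-derived L. donovani HU3 parasites from mice infected 9–11 weeks.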

[3] = tested on: Trypanosoma brucei Lister 427 strain bloodstream form; experiment: Assay for proliferation of kinetoplastid parasite Trypanosoma brucei; assay type: cell-based; conditions: Lister 427 bloodstream form, 48 hours, read-out: T. brucei EC50
Summary of the method: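 Bloodstream-form T. brucei Lister 427 in HMI-9 medium was exposed to compound (DMSO vehicle) for 48 hours at 37° C, 5% CO2. Parasite growth was read as ATP by CellTiter-Glo luminescence, with EC50 calculated from percent inhibition.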

[4] = tested on: Trypanosoma cruzi amastigotes (Tulahuen strain) cultured in 3T3 fibroblast cells; experiment: Assay for proliferation of kinetoplastid parasite Trypanosoma cruzi; assay type: cell-based; conditions: 144 h, 6 day incubation
From the text: Assay for Proliferation of Kinetoplastid Parasite Trypanosoma cruzi.
Compounds of the invention can be assayed to measure their capacity to inhibit proliferation of kinetoplastid parasite Trypanosoma cruzi. The screening procedure is for identifying compounds with inhibitor activity against Trypanosoma cruzi amastigotes cultured in 3T3 fibroblast cells. The assay is done using the mammalian stage (amastigotes) of T. cruzi that replicates in the intracellular space of host cells. The host cells are initially infected with the culture-derived trypomastigotes that rapidly invade and then divide as amastigotes. The protocol uses the Tulahuen strain of T. cruzi that has been engineered to express the E. coli beta-galactosidase gene (Lac-Z) (Antimicr. Agents Chemoth. 40:2592, 1996). This allows for a colorimetric readout by using the substrate CPRG and an absorbance plate reader.
3T3 fibroblast cells are re-suspended in RPMI-1640 medium without phenol red medium supplemented with 10% FBS (heat inactivated), 100 μg/ml penicillin, and 100 μg/ml streptomycin. Forty μL of suspension (1,000 cells) is dispensed into 384-well plates and incubated overnight at 37° C. temperature and in atmosphere containing 5% CO2. The following day, 100 nL of compounds of the invention in DMSO are added to plate wells containing 3T3 cells. At the same time control compounds (benznidazole and nifurtimox) and DMSO are added to plates to serve as the positive and negative controls, respectively. After that, 10 μL of media containing 10,000 T. cruzi trypomastigotes are added to each plate well and plates are placed back into incubators. After 6 day incubation, 10 μL of reagent solution (0.6 mM CPRG, 0.6% NP-40 in PBS) is added to plates and incubated at room temperature for 2 hours. Absorbance is then measured on SpectraMax Gemini […] to determine relative number of T. cruzi cells present in each plate well. The percentage inhibition of 50%, EC50, is calculated for each compound. […] Typically, the EC50 is 10 μM or less.

[5] = Tulahuen amastigotes in 3T3 fibroblast cells, read-out: T cruzi EC50

Compound | EC50 [1] [µM] | EC50 [2] [µM] | EC50 [3] [µM] | EC50 [4, 5] [µM] | EC50 ([4]; TULAHUEN, T. cruzi in 3T3 fibroblast cells, CPRG absorbance, read-out: EC50) [µM]
Cc1cnc2nc(-c3cc(NC(=O)c4ccc(S(C)(=O)=O)s4)ccc3Cl)[nH]c2c1 [Compound 175, N-(4-chloro-3-{6-methyl-1H-imidazo [4,5-b]pyridin-2-yl}phenyl)-5-methanesulfonylthiophene-2-carboxamide] | > 25 | > 28.9 | > 20.5 | 0.067 | 0.067
Cc1cnc2nc(-c3cc(NC(=O)c4ccc(F)s4)ccc3Cl)[nH]c2c1 [Compound 185] | 11.2 | > 30.7 | 1.77 | 0.96 | –
Cc1cnc2nc(-c3cc(NC(=O)c4cccnn4)ccc3Cl)[nH]c2c1 [Compound 186] | > 25 | > 34.7 | 4.5 | > 11.5 | –
Cc1cnc2nc(-c3cc(NC(=O)c4cncnc4)ccc3Cl)[nH]c2c1 [Compound 187] | 6.9 | > 42.2 | 4.2 | > 11.5 | –
Cc1cnc2nc(-c3cc(NC(=O)c4cccc(N5CCOCC5)c4)ccc3Cl)[nH]c2c1 [Compound 195] | 21.2 | > 50 | 7.8 | 8.8 | –
Cc1cnc2nc(-c3cc(NC(=O)CCC(=O)O)ccc3Cl)[nH]c2c1 [Compound 201] | > 25 | > 50 | > 10.8 | > 20 | –
Cc1cnc2nc(-c3cc(NC(=O)OC(C)C)ccc3Cl)[nH]c2c1 [Compound 216] | 2.59 | 2.83 | 0.46 | 0.7 | –
Cc1cnc2nc(-c3cc(NC(=O)OC4CCCC4)ccc3Cl)[nH]c2c1 [Compound 218] | > 25 | 7.5 | 14.9 | 2.14 | –
Cc1cnc2nc(-c3cc(NC(=O)OC4CCCCC4)ccc3Cl)[nH]c2c1 [Compound 222] | > 25 | > 22.6 | > 25 | 6.4 | –
CCN(CC)CCCCCCNC(=O)Nc1ccc(Cl)c(-c2nc3ncc(C)cc3[nH]2)c1 [Compound 227] | > 25 | > 50 | > 15.2 | > 20 | –
Cc1cnc2nc(-c3cc(NC(=O)NCCCCCCN(C)C)ccc3Cl)[nH]c2c1 [Compound 228] | > 25 | > 50 | > 25 | > 20 | –
Cc1cnc2nc(-c3cc(NC(=O)N4CC(F)(F)C[C@@H]4c4cccc(F)c4)ccc3Cl)[nH]c2c1 [Compound 229] | > 25 | > 50 | > 23.3 | > 20 | –
Cc1cnc2nc(-c3cc(NC(=O)N4CC5CC5C4)ccc3Cl)[nH]c2c1 (stereo not drawn) [Compound 230] | 5.4 | 13.3 | 1.48 | 3.6 | –
Cc1cnc2nc(-c3cc(NC(=O)N(C)C4CCCC4)ccc3Cl)[nH]c2c1 [Compound 231] | > 25 | 27.9 | > 23.2 | > 20 | –
Cc1cnc2nc(-c3cc(NC(=O)N(C)C4CCOC4)ccc3Cl)[nH]c2c1 (stereo not drawn) [Compound 232] | > 25 | > 50 | > 25 | > 20 | –
Cc1cnc2nc(-c3cc(NC(=O)N4CCC(N(C)C)C4)ccc3Cl)[nH]c2c1 (stereo not drawn) [Compound 233] | > 25 | > 50 | > 25 | > 20 | –
Cc1cnc2nc(-c3cc(NC(=O)NCCN(C(C)C)C(C)C)ccc3Cl)[nH]c2c1 [Compound 236] | > 25 | 28.8 | 1.11 | 17.9 | –
CNC(=O)Nc1ccc(Cl)c(-c2nc3ncc(C)cc3[nH]2)c1 [Compound 238] | > 25 | 29.3 | 9.2 | > 20 | –
CON(C)C(=O)Nc1ccc(Cl)c(-c2nc3ncc(C)cc3[nH]2)c1 [Compound 240] | 2.06 | 6.1 | 0.45 | 0.7 | –
Cc1cnc2nc(-c3cc(NC(=O)N(C)c4ccccc4)ccc3Cl)[nH]c2c1 [Compound 241] | 14.2 | > 47.5 | 9.7 | 10.4 | –
